Series [1] deals with RAW264.7. Kind of series: Antiinflammatory activity in mouse RAW264.7 cells assessed as inhibition of LPS-induced nitric oxide production at 0.4 uM after 18 hrs by griess reaction analysis. The class given is functional, cell-based. (The Griess reaction detects nitrite, a stable product of nitric oxide.)
Series [2] has as its system RAW264.7. Kind of series: Cytotoxicity against mouse RAW264.7 cells assessed as cell viability at 50 uM after 18 hrs by MTT assay in presence of LPS. The class given is cell-based. The following applies: raw264.7, 18 h. (Tetrazolium assays rely on reduction of a dye to a coloured formazan, in cell work by metabolically active cells.)
Series [3] concerns RAW264.7. Kind of series: Antiinflammatory activity in mouse RAW264.7 cells assessed as inhibition of LPS-induced TNF-alpha secretion at 0.4 uM after 18 hrs by sandwich ELISA. The class given is functional, cell-based.
For series [4], the system named is RAW264.7. Kind of series: Antiinflammatory activity in mouse RAW264.7 cells assessed as inhibition of LPS-induced nitric oxide production at 10 uM after 18 hrs by griess reaction analysis. The class given is functional. The following applies: for inhibition at 10 µM: RAW264.7, 18 h.
The test system of series [5] is RAW264.7. Kind of series: Antiinflammatory activity in mouse RAW264.7 cells assessed as inhibition of LPS-induced nitric oxide production after 18 hrs by griess reaction analysis. The class given is functional, cell-based. Conditions: RAW264.7, 18 h.
Series [6] concerns RAW264.7. Kind of series: Antiinflammatory activity in mouse RAW264.7 cells assessed as inhibition of LPS-induced TNF-alpha secretion at 10 uM after 18 hrs by sandwich ELISA. The class given is functional. Conditions: for inhibition at 10 µM: RAW264.7, 18 h. In general terms: An ELISA detects its analyte on a solid surface through an enzyme-linked reagent.
Series [7] deals with RAW264.7. Kind of series: Antiinflammatory activity in mouse RAW264.7 cells assessed as inhibition of LPS-induced TNF-alpha secretion after 18 hrs by sandwich ELISA. The class given is functional, cell-based. The following applies: RAW264.7, 18 h.
For series [8], the target named is T1, Bifunctional epoxide hydrolase 2 (Homo sapiens) (UniProt P34913).
T1 sequence (whole entry): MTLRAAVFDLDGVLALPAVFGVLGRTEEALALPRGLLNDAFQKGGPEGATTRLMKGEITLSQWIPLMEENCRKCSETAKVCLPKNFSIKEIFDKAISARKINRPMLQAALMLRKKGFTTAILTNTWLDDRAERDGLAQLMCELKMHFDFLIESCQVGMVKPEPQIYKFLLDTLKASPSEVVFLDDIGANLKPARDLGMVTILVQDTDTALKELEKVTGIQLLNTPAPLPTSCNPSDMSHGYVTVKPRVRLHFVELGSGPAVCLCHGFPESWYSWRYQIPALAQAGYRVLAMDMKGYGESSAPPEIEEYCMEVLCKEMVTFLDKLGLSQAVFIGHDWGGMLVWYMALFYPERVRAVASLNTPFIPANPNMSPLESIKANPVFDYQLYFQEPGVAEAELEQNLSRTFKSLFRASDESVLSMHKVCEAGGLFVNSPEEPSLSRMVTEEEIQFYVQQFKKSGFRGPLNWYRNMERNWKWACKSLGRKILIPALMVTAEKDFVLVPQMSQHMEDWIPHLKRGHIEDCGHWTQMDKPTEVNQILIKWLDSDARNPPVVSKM
Kind of series: Inhibition of sEH (unknown origin) assessed as substrate PHOME hydrolysis at 25 uM after 1 hr by fluorescence method.

Series [9] has as its target T2, Bifunctional epoxide hydrolase 2 (Homo sapiens, UniProt P34913).
T2 sequence (P34913 whole entry): T1 sequence (whole entry)
Kind of series: Inhibition of sEH (unknown origin) assessed as substrate PHOME hydrolysis after 1 hr by fluorescence method.

Structures are written as SMILES. Calls of active or inactive are those of the source. The rule behind the calls is not given here.

`CC(=O)O[C@H]1[C@H](OC[C@H]2O[C@@H](Oc3ccc(O)cc3)[C@H](O)[C@@H](O)[C@@H]2O)O[C@@H](C)[C@H](OC(=O)c2ccc(O)cc2)[C@H]1O`: the inhibition entry in the series with RAW264.7 [1], in the series with RAW264.7 [3] and with RAW264.7 [4] was “inactive” each time. In addition, the Activity result in the series on RAW264.7 [2] is given as “Non-toxic”. The IC50 in the series on RAW264.7 [5] and in the series with RAW264.7 [7] was over 50 µM in each case. Besides, the inhibition entry in the series with RAW264.7 [6] was “Active”.
For `O=C(O[C@H]1[C@H](Oc2c(-c3ccc(O)cc3)oc3cc(O)cc(O)c3c2=O)O[C@H](CO)[C@@H](O)[C@@H]1O)c1cc(O)c(O)c(O)c1`, in series [8], the inhibition was over 40%. Besides, the inhibition entry with RAW264.7 [1], with RAW264.7 [3] and with RAW264.7 [4] was “inactive” throughout. Further, in the series on RAW264.7 [2], the Activity entry is given as “Non-toxic”. Also, the IC50 in series [9] is 27.4 µM; in the series on RAW264.7 [7], 17.2 µM. The inhibition at 10 µM in the series with RAW264.7 [6] worked out at 21.5%.
For `O=C(O[C@@H]1O[C@@H]2COC(=O)c3cc(O)c(O)c(O)c3-c3c(cc(O)c(O)c3O)C(=O)O[C@H]([C@H]1O)[C@@H]2O)c1cc(O)c(O)c(O)c1` [CORILAGIN], the inhibition in series [8] was over 40%. The inhibition result in the series with RAW264.7 [1] and in the series with RAW264.7 [3] was “inactive” in each case. Further, in the series on RAW264.7 [2], the Activity entry was “Non-toxic”. For the same molecule, the inhibition entry with RAW264.7 [4] and in the series with RAW264.7 [6] was “Active” each time. Besides, the figures for the IC50 with RAW264.7 [5] and with RAW264.7 [7] were 25.1 µM and 38.5 µM, respectively.
With `Cc1ccc(-c2cc(C(F)(F)F)nn2-c2ccc(S(N)(=O)=O)cc2)cc1` [CELECOXIB], the IC50 in the series on RAW264.7 [5] was determined as 1.84 µM; in the series on RAW264.7 [7] it was 1.28 µM.
`O=C(CCc1ccc(O)cc1)c1c(O)cc(O)cc1O[C@@H]1O[C@H](CO)[C@@H](O)[C@H](O)[C@H]1O` [PHLORIZIN]: the inhibition in [8] was over 40%. In addition, the inhibition result in the series with RAW264.7 [1], in the series on RAW264.7 [3] and in the series with RAW264.7 [4] was “inactive” throughout. For the same molecule, the Activity entry in the series on RAW264.7 [2] is on record as “Non-toxic”. Moreover, the IC50 in series [9] is 41.7 µM; in the series on RAW264.7 [7], 14.4 µM. The inhibition at 10 µM with RAW264.7 [6] came to 21.5%.
Regarding `CC1=CC[C@@H](C(C)(C)O[C@@H]2O[C@H](CO[C@@H]3OC[C@H](O)[C@H](O)[C@H]3O)[C@@H](O)[C@H](O)[C@H]2O)CC1`, the inhibition in [8] is under 40%. Also, the inhibition entry in the series on RAW264.7 [1] and in the series with RAW264.7 [3] was “inactive” throughout. For the same molecule, the Activity entry in the series on RAW264.7 [2] is “Non-toxic”. For the same molecule, the inhibition entry in the series on RAW264.7 [4] and in the series with RAW264.7 [6] was “Active” throughout. In the series on RAW264.7 [7], the IC50 is over 50 µM.
Take `O=C(O[C@H]1[C@H](Oc2c(-c3ccc(O)c(O)c3)oc3cc(O)cc(O)c3c2=O)O[C@H](CO)[C@@H](O)[C@@H]1O)c1cc(O)c(O)c(O)c1`: in [8], the inhibition was over 40%. Moreover, the inhibition result in the series with RAW264.7 [1], in the series on RAW264.7 [3] and in the series on RAW264.7 [4] was “inactive” in each case. Besides, the Activity result with RAW264.7 [2] is “Non-toxic”. Besides, the IC50 was determined as 18 µM in series [9] and 16.4 µM with RAW264.7 [7]. Besides, the inhibition at 10 µM in the series with RAW264.7 [6] came to 21.5%.
For `COC/C=C/c1cc(OC)c(O[C@@H]2O[C@H](CO)[C@@H](O)[C@H](O)[C@H]2O)c(OC)c1`, the inhibition result in the series with RAW264.7 [1] and in the series with RAW264.7 [3] was “inactive” in each case. The Activity result with RAW264.7 [2] is “Non-toxic”. In addition, the inhibition at 10 µM worked out at 30% with RAW264.7 [4] and 21.5% with RAW264.7 [6]. The IC50 with RAW264.7 [5] was determined as 17.2 µM; with RAW264.7 [7] it was 17.5 µM.
For the molecule `COC/C=C/c1ccc(O[C@@H](CO)CO[C@@H]2O[C@H](CO)[C@@H](O)[C@H](O)[C@H]2O)c(OC)c1`, in [8], the inhibition was under 40%. In addition, the inhibition result in the series on RAW264.7 [1] and in the series on RAW264.7 [3] was “inactive” throughout. In the series with RAW264.7 [2], the Activity entry is “Non-toxic”. In addition, the inhibition result with RAW264.7 [4] and with RAW264.7 [6] was “Active” each time. The figures for the IC50 in the series with RAW264.7 [5] and in the series on RAW264.7 [7] were 28.6 µM and 27.2 µM, respectively.
`COc1cc(/C=C/CO)cc(OC)c1O[C@@H]1O[C@H](CO)[C@@H](O)[C@H](O)[C@H]1O` [SYRINGIN]: the inhibition in series [8] was under 40%. In addition, the inhibition result in the series with RAW264.7 [1] and in the series with RAW264.7 [3] was “inactive” each time. The Activity entry with RAW264.7 [2] is “Non-toxic”. Besides, the inhibition entry in the series on RAW264.7 [4] and in the series on RAW264.7 [6] was “Active” each time. Moreover, the IC50 in the series on RAW264.7 [5] was determined as 24 µM; in the series with RAW264.7 [7], 34.9 µM.
For `C[C@@H]1O[C@@H](OC[C@H]2O[C@@H](Oc3c(-c4ccc(O)cc4)oc4cc(O)cc(O)c4c3=O)[C@H](O)[C@@H](O)[C@@H]2O)[C@H](O)[C@H](O)[C@H]1O` [NICOTIFLOROSIDE], the inhibition entry in the series with RAW264.7 [1], in the series with RAW264.7 [3] and in the series with RAW264.7 [4] was “inactive” each time. Also, the Activity entry in the series on RAW264.7 [2] was “Non-toxic”. Moreover, the IC50 with RAW264.7 [5] came out at 45.3 µM; in the series with RAW264.7 [7] it was 41.5 µM. In addition, the inhibition entry in the series on RAW264.7 [6] is “Active”.
In the case of `COC/C=C/c1ccc(O[C@@H]2O[C@H](CO)[C@@H](O)[C@H](O)[C@H]2O)c(OC)c1`, in series [8], the inhibition was under 40%. Moreover, the inhibition result in the series on RAW264.7 [1] and in the series on RAW264.7 [3] was “inactive” in each case. Also, the Activity result in the series on RAW264.7 [2] is listed as “Non-toxic”. The inhibition at 10 µM in the series on RAW264.7 [4] was determined as 32.9%; in the series with RAW264.7 [6] it was 21.5%. The figures for the IC50 with RAW264.7 [5] and in the series with RAW264.7 [7] were 19.1 µM and 16.5 µM, respectively.
Turning to `O=C(O[C@H]1[C@H](Oc2c(-c3ccc(O)cc3)oc3cc(O)cc(O)c3c2=O)O[C@H](CO)[C@@H](O)[C@@H]1OC(=O)c1cc(O)c(O)c(O)c1)c1cc(O)c(O)c(O)c1`, the inhibition in [8] was over 40%. Moreover, the inhibition result with RAW264.7 [1], in the series on RAW264.7 [3] and in the series on RAW264.7 [4] was “inactive” in each case. Also, the Activity entry in the series on RAW264.7 [2] was “Non-toxic”. In addition, in series [9], the IC50 is 23.8 µM. The inhibition entry in the series with RAW264.7 [6] is “Active”.
Consider `OC[C@H]1O[C@@H](OCc2ccccc2)[C@H](O)[C@@H]1O`, for which the inhibition result in the series on RAW264.7 [1] and in the series on RAW264.7 [3] was “inactive” in each case. Further, the Activity entry with RAW264.7 [2] was “Non-toxic”. Further, the inhibition entry with RAW264.7 [4] was “Active”. Further, the results for the IC50 in the series on RAW264.7 [5] and in the series on RAW264.7 [7] were 24.5 µM and 18.4 µM, respectively. In the series on RAW264.7 [6], the inhibition at 10 µM is 21.5%.
For `COC(=O)Cc1c2c3c(cc(O)c(O)c3oc1=O)C(=O)O[C@@H]2C(=O)OC`, the inhibition entry in the series on RAW264.7 [1] and in the series on RAW264.7 [3] was “inactive” in each case. The Activity result in the series on RAW264.7 [2] is given as “Non-toxic”. The inhibition entry in the series on RAW264.7 [4] and with RAW264.7 [6] was “Active” each time. For the same molecule, the IC50 in the series on RAW264.7 [5] amounted to 19.5 µM.
For the molecule `COC(=O)c1cc(O)c(O)c(O)c1` [GALLIC ACID METHYL ESTER], the inhibition entry with RAW264.7 [1] and with RAW264.7 [3] was “inactive” each time. Further, the Activity entry in the series with RAW264.7 [2] is “Non-toxic”. Further, the inhibition at 10 µM in the series with RAW264.7 [4] is 35.1%. The results for the IC50 in the series with RAW264.7 [5] and in the series on RAW264.7 [7] were 11.1 µM and 29.4 µM, respectively. In addition, the inhibition entry in the series on RAW264.7 [6] is “Active”.

Usually inhibition stands for how much of the control response was suppressed. As a reminder, the IC50 is the concentration needed to halve the response being measured.

For the origin of these results see ChEMBL document CHEMBL3232869, “Anti-inflammatory components of Euphorbia humifusa Willd” (Bioorg Med Chem Lett, 2014).
